Measurements from patent US8030354B2, “Substituted biphenyl GPR40 modulators” (Amgen Inc., priority 2007, dated 2011).
Values belong to the compound of their own block, whether it stands above or below them.

Biological target: GPR40 (Homo sapiens, UniProt O14842)
Experiment: Cell-based aequorin assay (CHO cells stably expressing GPR40 and aequorin)
Set-up: expressed in transfected cells; host or cells: CHO cells stably transfected with GPR40 and aequorin
Conditions: activation of human GPR40, CHO cells, 0.01% HSA
Protocol: Briefly, the Aequorin assays were performed on doubly stable CHO cells expressing GPR40 and Aequorin DNA. […] The luminescence was recorded over a period of 20 seconds with a Microlumat luminometer (Berthold). […] The inositol phosphate assay was performed on an A9 cell line stably transfected with GPR40 (A9_GPR40). The cells were incubated with different concentrations of compounds and [^3H] inositol accumulation was measured after 1 hour.
Cell-based aequorin assays were employed to characterize the modulatory activity of compounds on the GPR40 signaling pathway. In an exemplary assay, CHO cells were stably transfected with both GPR40 and Aequorin (Euroscreen). Cells were detached from the tissue culture dish with 2 mL of trypsin (0.25%(w/v)). Trypsinization was halted with 28 mL of Hanks Buffered Salt Solution containing 20 mM Hepes (H/HBSS) and 0.01% fatty acid-free human serum albumin (HSA). Coelantrazine is added to 1 ug/mL, and the cells were incubated for 2 hours at room temperature. Compounds were dissolved in DMSO for preparation of 10 mM stock solutions. Compounds were diluted in H/HBSS containing 0.01% HSA. Serial dilutions of the test compounds were prepared to determine dose response.
Aequorin luminescence measurements were made using an EG&G Berthold 96-well luminometer, and the response was measured over a 20 second interval after cells and compounds were mixed. The maximum relative light units was plotted to determine dose response. The EC50 (effective concentration to reach 50% maximal response) was determined from the dose response plot.

Sequence of GPR40 (O14842 whole entry): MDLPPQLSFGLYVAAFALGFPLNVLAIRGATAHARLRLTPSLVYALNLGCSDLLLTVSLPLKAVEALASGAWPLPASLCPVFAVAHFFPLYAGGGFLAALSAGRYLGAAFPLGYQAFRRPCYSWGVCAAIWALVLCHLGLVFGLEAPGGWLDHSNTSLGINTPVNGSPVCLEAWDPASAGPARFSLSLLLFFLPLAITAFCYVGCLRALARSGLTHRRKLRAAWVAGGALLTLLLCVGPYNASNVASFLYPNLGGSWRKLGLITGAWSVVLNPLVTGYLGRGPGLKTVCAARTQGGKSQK

Structure (SMILES): COc1ccc(F)c(-c2ccc(COc3cccc([C@@H](CC(=O)O)c4ccon4)c3)cc2C(C)(C)C)c1 [Example 94.2, (3R)-3-(3-(((2-(1,1-Dimethylethyl)-2′-fluoro-5′-(methyloxy)-1,1′-biphenyl-4-yl)methyl)oxy)phenyl)-3-(3-isoxazolyl)propanoic acid]
- EC50: 1000 to 10000 nM

Structure (SMILES): CCCCOc1cc(COc2cccc([C@H](CC(=O)O)C3CC3)c2)ccc1-c1cc(OC)ccc1F (single isomer, unassigned) [Example 11, (3R)-3-(3-(((2-(Butyloxy)-2′-fluoro-5′-(methyloxy)-1,1′-biphenyl-4-yl)methyl)oxy)phenyl)-3-cyclopropylpropanoic acid or (3S)-3-(3-(((2-(butyloxy)-2′-fluoro-5′-(methyloxy)-1,1′-biphenyl-4-yl)methyl)oxy)phenyl)-3-cyclopropylpropanoic acid]
- EC50: 1000 to 10000 nM

Structure (SMILES): COc1ccc(F)c(-c2ccc(COc3cccc(C(CC(=O)O)CC4CC4)c3)cc2CN2CCCCCC2)c1 (single isomer, unassigned) [Example 69.48, (3R)-3-(3-(((2-(1-Azepanylmethyl)-2′-fluoro-5′-(methyloxy)-1,1′-biphenyl-4-yl)methyl)oxy)phenyl)-4-cyclopropylbutanoic acid or (3S)-3-(3-(((2-(1-azepanylmethyl)-2′-fluoro-5′-(methyloxy)-1,1′-biphenyl-4-yl)methyl)oxy)phenyl)-4-cyclopropylbutanoic acid]
- EC50: 1000 to 10000 nM

Structure (SMILES): C=CC(C)(C)[C@@H](O)c1cc(COc2cccc([C@@H](CC(=O)O)C3CC3)c2)ccc1-c1cc(OC)ccc1F (single isomer, unassigned) [Example 66.60]
- EC50: 1000 to 10000 nM

Structure (SMILES): CCCCOc1cc(COc2cccc([C@H](C)CC(=O)O)c2)ccc1-c1cccc(OCC)c1 (single isomer, unassigned) [Example 22, (3R)-3-(3-(((2-(Butyloxy)-3′-(ethyloxy)-1,1′-biphenyl-4-yl)methyl)oxy)phenyl)butanoic acid or (3S)-3-(3-(((2-(butyloxy)-3′-(ethyloxy)-1,1′-biphenyl-4-yl)methyl)oxy)phenyl)butanoic acid]
- EC50: 1000 to 10000 nM

Structure (SMILES): COc1ccc(F)c(-c2cc(C)c(COc3cccc(C(C)CC(=O)O)c3)cc2C(C)(C)C)c1 (single isomer, unassigned) [Example 64.3, (3R)-3-(3-(((2-(1,1-Dimethylethyl)-2′-fluoro-5-methyl-5′-(methyloxy)-1,1′-biphenyl-4-yl)methyl)oxy)phenyl)butanoic acid or (3S)-3-(3-(((2-(1,1-dimethylethyl)-2′-fluoro-5-methyl-5′-(methyloxy)-1,1′-biphenyl-4-yl)methyl)oxy)phenyl)butanoic acid]
- EC50: 1000 to 10000 nM

Structure (SMILES): COc1ccc(F)c(-c2ccc(COc3cccc(C(CC(=O)O)C4CC4)c3)cc2C2CCCC2(C)C)c1 (single isomer, unassigned) [Example 97.2]
- EC50: 1000 to 10000 nM

The remaining lines, values ahead:

- EC50: 1000 to 10000 nM
Structure (SMILES): CCCCOc1cc(COc2cccc(C(CCC(F)(F)F)CC(=O)O)c2)ccc1-c1cc(OC)ccc1F (single isomer, unassigned) [Example 68.2, (3R)-3-(3-(((2-(Butyloxy)-2′-fluoro-5′-(methyloxy)-1,1′-biphenyl-4-yl)methyl)oxy)phenyl)-6,6,6-trifluorohexanoic acid or (3S)-3-(3-(((2-(butyloxy)-2′-fluoro-5′-(methyloxy)-1,1′-biphenyl-4-yl)methyl)oxy)phenyl)-6,6,6-trifluorohexanoic acid]

- EC50: 100 to 1000 nM
Structure (SMILES): CC1(C)CCC[C@@H]1c1cc(COc2cccc([C@@H](CC(=O)O)C3CC3)c2)ccc1-c1cc(OC(F)(F)F)ccc1F (single isomer, unassigned) [Example 66.29]

- EC50: 1000 to 10000 nM
Structure (SMILES): C=CC(CC(=O)O)c1cccc(OCc2ccc(-c3cc(OC)ccc3F)c(C(C)(C)C)c2)c1 (single isomer, unassigned) [Example 19, (3R)-3-(3-(((2-(1,1-Dimethylethyl)-2′-fluoro-5′-(methyloxy)-1,1′-biphenyl-4-yl)methyl)oxy)phenyl)-4-pentenoic acid or (3S)-3-(3-(((2-(1,1-dimethylethyl)-2′-fluoro-5′-(methyloxy)-1,1′-biphenyl-4-yl)methyl)oxy)phenyl)-4-pentenoic acid]

- EC50: 100 to 1000 nM
Structure (SMILES): COc1ccc(F)c(-c2ccc(COc3cccc([C@H](C)CC(=O)O)c3)cc2OCC(C)C)c1 (single isomer, unassigned) [Example 29, (3R)-3-(3-(((2′-Fluoro-5′-(methyloxy)-2-((2-methylpropyl)oxy)-1,1′-biphenyl-4-yl)methyl)oxy)phenyl)butanoic acid or (3S)-3-(3-(((2′-fluoro-5′-(methyloxy)-2-((2-methylpropyl)oxy)-1,1′-biphenyl-4-yl)methyl)oxy)phenyl)butanoic acid]

- EC50: 100 to 1000 nM
Structure (SMILES): COc1ccc(F)c(-c2ccc(COc3cccc(CC(C)C(=O)O)c3)cc2C2=CCCC2(C)C)c1 (single isomer, unassigned) [Example 62.1, (2R)-3-(3-(((2-(5,5-Dimethyl-1-cyclopenten-1-yl)-2′-fluoro-5′-(methyloxy)-1,1′-biphenyl-4-yl)methyl)oxy)phenyl)-2-methylpropanoic acid or (2S)-3-(3-(((2-(5,5-dimethyl-1-cyclopenten-1-yl)-2′-fluoro-5′-(methyloxy)-1,1′-biphenyl-4-yl)methyl)oxy)phenyl)-2-methylpropanoic acid]

- EC50: 100 to 1000 nM
Structure (SMILES): CCCCCOc1cc(COc2cccc([C@H](C)CC(=O)O)c2)ccc1-c1cc(OC)ccc1F (single isomer, unassigned) [Example 28, (3R)-3-(3-(((2′-Fluoro-5′-(methyloxy)-2-(pentyloxy)-1,1′-biphenyl-4-yl)methyl)oxy)phenyl)butanoic acid or (3S)-3-(3-(((2′-fluoro-5′-(methyloxy)-2-(pentyloxy)-1,1′-biphenyl-4-yl)methyl)oxy)phenyl)butanoic acid]

- EC50: 100 to 1000 nM
Structure (SMILES): COc1cccc(-c2ccc(COc3cccc(C(CC(=O)O)CC4CC4)c3)cc2C2CCCC2(C)C)c1 (single isomer, unassigned) [Example 69.9]

- EC50: 100 to 1000 nM
Structure (SMILES): CCCC(CC(=O)O)c1cccc(OCc2ccc(-c3cc(OC)ccc3F)c(C3CCCC3)c2)c1 (single isomer, unassigned) [Example 67.10, (3R)-3-(3-(((2-Cyclopentyl-2′-fluoro-5′-(methyloxy)-1,1′-biphenyl-4-yl)methyl)oxy)p acid or (3S)-3-(3-(((2-cyclopentyl-2′-fluoro-5′-(methyloxy)-1,1′-biphenyl-4-yl)methyl)oxy)phenyl)hexanoic acid]

- EC50: 100 to 1000 nM
Structure (SMILES): CCCCC(CC(=O)O)c1cccc(OCc2ccc(-c3cc(OC)ccc3F)c(C(C)(C)C)c2)c1 (single isomer, unassigned) [Example 71.1, (3R)-3-(3-(((2-(1,1-Dimethylethyl)-2′-fluoro-5′-(methyloxy)-1,1′-biphenyl-4-yl)methyl)oxy)phenyl)heptanoic acid or (3S-3-(3-(((2-(1,1-dimethylethyl)-2′-fluoro-5′-(methyloxy)-1,1′-biphenyl-4-yl)methyl)oxy)phenyl)heptanoic acid]
